Columns and labels:
S. atroolivaceus = assay: Growth inhibition of S. atroolivaceus by antibiotics; format: cell-based, Streptomyces atroolivaceus; conditions: for concentration for complete inhibition of growth: S. atroolivaceus; for sensitivity of S. atroolivaceus: in words
Procedure: S. atroolivaceus grows very well at 30° C.; it doesn't grow at temperature beyond 35° C. […] Thus, E. coli—Streptomyces shuttle vectors pOJ260 (suicide vector, Am^R) and pKC1139 (self-replicating vector, Am^R) were chosen to make the gene-disruption constructs pYC12 and pYC20, respectively. The concentration of antibiotic (Am) for selection of transformants/exconjugates is 50 μg/ml.

[1] = tested on: HELA S3, sarcoma 180, B-16, Colon 26, and leukemia P388; conditions: cited from earlier work

SMILES	concentration for complete inhibition of growth (S. atroolivaceus) [µg/mL]	sensitivity of S. atroolivaceus (S. atroolivaceus)	sensitivity of S. atroolivaceus (S. atroolivaceus; listed as apromycin)	activity against drug-resistant tumors ([1]; murine models inoculated with tumors resistant to cisplatin, doxorubicin, mitomycin, or cyclophosphamide)	antitumor activity ([1]; murine tumor models in vivo)
CN[C@@H]1[C@@H](O[C@H]2O[C@H](CO)[C@@H](N)[C@H](O)[C@H]2O)OC2C[C@@H](N)[C@@H](O[C@H]3[C@H](O)[C@@H](O)[C@H](N)C[C@@H]3N)OC2[C@@H]1O (stereo partly shown) [apramycin]	10	sensitive	highly sensitive		
C=C(NC(=O)C(=C)NC(=O)c1csc(C2=N[C@@H]3c4csc(n4)[C@H]4NC(=O)c5csc(n5)[C@H]([C@](C)(O)[C@@H](C)O)NC(=O)[C@H]5CSC(=N5)/C(=C/C)NC(=O)[C@H]([C@@H](C)O)NC(=O)c5csc(n5)[C@]3(CC2)NC(=O)[C@H](C)NC(=O)C(=C)NC(=O)[C@H](C)NC(=O)[C@H]([C@@H](C)CC)N[C@@H]2C=Cc3c([C@H](C)O)cc(nc3[C@H]2O)C(=O)O[C@@H]4C)n1)C(N)=O [thiostrepton]	3	highly sensitive			
C/C1=C\[C@@H](O)C(=O)/C=C/C=C\c2csc(n2)[C@@H](C)NC(=O)C[C@@]2(CC1)[S+]([O-])SC(=O)[C@]2(C)O (stereo partly shown) [Lnm, Leinamycin]				active	potent antitumor activity
